Measurements: publication PMC7311426, “An amphipathic peptide with antibiotic activity against multidrug-resistant Gram-negative bacteria” (Nature Communications, 2020)
≈ marks a conversion by molar mass, not a printed value. Where two headings read alike, the source gives them in different places.

Columns and labels:
Experiment in all cases: microbe, parasite or virus in culture
K. pneumoniae = conditions: Klebsiella pneumoniae
Method in brief: (§1)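 MICs were scored by eye after 18-20 h static incubation at 37 °C, with bacteria at 5 × 10^5 CFU mL^−1 in MHB. Peptides were serially diluted 2-fold over 12 points, top 128 or 64 μg mL^−1. CAMHB (CLSI) and 1% agarose-MHB variants were also run, at least six replicates.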

P. aeruginosa = conditions: Pseudomonas aeruginosa
Method in brief: as §1

[1] = system: A. baumannii clinical isolates
Experimental: The in vitro activity of AA139 and comparator antimicrobials was determined in two panels of clinical isolates of E. coli, K. pneumoniae, P. aeruginosa, and A. baumannii (Supplementary Table 3), and MIC90 presented. The US panel consisted of 331 clinical isolates from 2010 to 2012. It was tested by BMD in accordance with the CLSI guidelines (M07-A9, 2012)[39]. […] AA139 was diluted in 0.01% acetic acid/0.1% bovine serum albumin. Sterile polypropylene culture cluster round-bottom 96-well plates (Costar # 3879) were used for testing. The worldwide panel consisted of 445 clinical isolates from 2011 to 2013, geographically divided into Asia, Europe, North America, and Rest of World (Middle East, Latin America, Africa, and South Pacific) with each region representing ~25% of the isolates. It was tested by broth microdilution in accordance with the CLSI guidelines (M07-A9, 2012)[39]. […] The test media was CAMHB (Becton Dickinson). AA139 and polymyxin B were tested in media supplemented with 0.002% Tween 80 (Calbiochem). MIC90 values were calculated for all or subsets of the isolates. MIC correlation between AA139 and colistin was analyzed with data from the US panel.

[2] = A. baumannii, worldwide isolates 2011-2013, n = 108

For `C[C@H]1COc2c(N3CCN(C)CC3)c(F)cc3c(=O)c(C(=O)O)cn1c23` [LEV, levofloxacin, reference compound], the MIC (K. pneumoniae; read-out: MIC, broth microdilution, K. pneumoniae 3010 spontaneous mutant, AA139 selection 4X, plate 1, colony 1, drug-free passage 1) was 0.06 µg/mL (≈ 0.166 µM), the MIC (K. pneumoniae; read-out: MIC, broth microdilution, K. pneumoniae 3010 spontaneous mutant, AA139 selection 4X, plate 1, colony 1, drug-free passage 5) was 0.06 µg/mL (≈ 0.166 µM) and the MIC (K. pneumoniae; read-out: MIC, broth microdilution, K. pneumoniae 3010 spontaneous mutant, AA139 selection 8X, plate 1, colony 1, drug-free passage 1) was 0.06 µg/mL (≈ 0.166 µM). For the same compound, the MIC (K. pneumoniae; read-out: MIC, broth microdilution, K. pneumoniae 3010 spontaneous mutant, AA139 selection 8X, plate 1, colony 1, drug-free passage 5) was 0.06 µg/mL (≈ 0.166 µM), the MIC (P. aeruginosa; ATCC27853, read-out: MIC, broth microdilution, P. aeruginosa ATCC 27853 spontaneous mutant, AA139 selection 4X, plate 1, colony 2, drug-free passage 1) was 2 µg/mL (≈ 5.53 µM) and the MIC (P. aeruginosa; ATCC27853, read-out: MIC, broth microdilution, P. aeruginosa ATCC 27853 spontaneous mutant, AA139 selection 4X, plate 1, colony 3, drug-free passage 5) was 2 µg/mL (≈ 5.53 µM). For the same compound, the MIC (P. aeruginosa; ATCC27853, read-out: MIC, broth microdilution, P. aeruginosa ATCC 27853 spontaneous mutant, AA139 selection 4X, plate 1, colony 4, drug-free passage 1) was 2 µg/mL (≈ 5.53 µM), the MIC (P. aeruginosa; ATCC27853, read-out: MIC, broth microdilution, P. aeruginosa ATCC 27853 spontaneous mutant, AA139 selection 4X, plate 1, colony 5, drug-free passage 1) was 2 µg/mL (≈ 5.53 µM) and the MIC (P. aeruginosa; ATCC27853, read-out: MIC, broth microdilution, P. aeruginosa ATCC 27853 spontaneous mutant, AA139 selection 4X, plate 1, colony 5, drug-free passage 5) was 2 µg/mL (≈ 5.53 µM). The MIC (P. aeruginosa; ATCC27853, read-out: MIC, broth microdilution, P. aeruginosa ATCC 27853 spontaneous mutant, AA139 selection 4X, plate 1, colony 6, drug-free passage 1) was 2 µg/mL (≈ 5.53 µM), the MIC (P. aeruginosa; ATCC27853, read-out: MIC, broth microdilution, P. aeruginosa ATCC 27853 spontaneous mutant, AA139 selection 4X, plate 2, colony 1, drug-free passage 1) was 2 µg/mL (≈ 5.53 µM) and the MIC (P. aeruginosa; ATCC27853, read-out: MIC, broth microdilution, P. aeruginosa ATCC 27853 spontaneous mutant, AA139 selection 4X, plate 2, colony 2, drug-free passage 1) was 2 µg/mL (≈ 5.53 µM). The MIC (P. aeruginosa; ATCC27853, read-out: MIC, broth microdilution, P. aeruginosa ATCC 27853 spontaneous mutant, AA139 selection 8X, plate 1, colony 1, drug-free passage 5) was 2 µg/mL (≈ 5.53 µM), the MIC (P. aeruginosa; ATCC27853, read-out: MIC, broth microdilution, P. aeruginosa ATCC 27853 spontaneous mutant, AA139 selection 8X, plate 1, colony 2, drug-free passage 1) was 2 µg/mL (≈ 5.53 µM) and the MIC (P. aeruginosa; read-out: MIC, broth microdilution, P. aeruginosa UNT 138-1 spontaneous mutant, AA139 selection 4X, plate 1, colony 1, drug-free passage 1) was 2 µg/mL (≈ 5.53 µM). For the same compound, the MIC50 [1, 2] was 16 µg/mL (≈ 44.3 µM), the MIC90 [1, 2] was > 32 µg/mL and the “Number of isolates with MIC 0.03 (MIC frequency distribution)” value ([1]; A. baumannii, worldwide isolates 2011-2013, n = 108, count of isolates at MIC 0.03) was 1. For the same compound, the “Number of isolates with MIC 0.06 (MIC frequency distribution)” value ([1]; A. baumannii, worldwide isolates 2011-2013, n = 108, count of isolates at MIC 0.06) was 4, the “Number of isolates with MIC 0.125 (MIC frequency distribution)” value ([1]; A. baumannii, worldwide isolates 2011-2013, n = 108, count of isolates at MIC 0.125) was 8 and the “Number of isolates with MIC 0.25 (MIC frequency distribution)” value ([1]; A. baumannii, worldwide isolates 2011-2013, n = 108, count of isolates at MIC 0.25) was 2. For the same compound, the “Number of isolates with MIC 0.5 (MIC frequency distribution)” value ([1]; A. baumannii, worldwide isolates 2011-2013, n = 108, count of isolates at MIC 0.5) was 3, the “Number of isolates with MIC 1 (MIC frequency distribution)” value ([1]; A. baumannii, worldwide isolates 2011-2013, n = 108, count of isolates at MIC 1) was 0 and the “Number of isolates with MIC 2 (MIC frequency distribution)” value ([1]; A. baumannii, worldwide isolates 2011-2013, n = 108, count of isolates at MIC 2) was 0. For the same compound, the “Number of isolates with MIC 4 (MIC frequency distribution)” value ([1]; A. baumannii, worldwide isolates 2011-2013, n = 108, count of isolates at MIC 4) was 6, the “Number of isolates with MIC 8 (MIC frequency distribution)” value ([1]; A. baumannii, worldwide isolates 2011-2013, n = 108, count of isolates at MIC 8) was 22 and the “Number of isolates with MIC 16 (MIC frequency distribution)” value ([1]; A. baumannii, worldwide isolates 2011-2013, n = 108, count of isolates at MIC 16) was 20. The “Number of isolates with MIC 32 (MIC frequency distribution)” value ([1]; A. baumannii, worldwide isolates 2011-2013, n = 108, count of isolates at MIC 32) was 19, the “Number of isolates with MIC 64 (MIC frequency distribution)” value ([1]; A. baumannii, worldwide isolates 2011-2013, n = 108, count of isolates at MIC 64) was 0 and the “Number of isolates with MIC 128 (MIC frequency distribution)” value ([1]; A. baumannii, worldwide isolates 2011-2013, n = 108, count of isolates at MIC 128) was 0. The “Number of isolates with MIC >16 (MIC frequency distribution)” value ([1]; A. baumannii, worldwide isolates 2011-2013, n = 108, count of isolates at MIC >16) was 0, the “Number of isolates with MIC >32 (MIC frequency distribution)” value ([1]; A. baumannii, worldwide isolates 2011-2013, n = 108, count of isolates at MIC >32) was 23 and the “Number of isolates with MIC >128 (MIC frequency distribution)” value ([1]; A. baumannii, worldwide isolates 2011-2013, n = 108, count of isolates at MIC >128) was 0. For the same compound, the “Number of isolates with MIC ≤0.015 (MIC frequency distribution)” value ([1]; A. baumannii, worldwide isolates 2011-2013, n = 108, count of isolates at MIC ≤0.015) was 0 and the MIC90 ([1]; Acinetobacter baumannii) was > 32 µg/mL.
